# Data reported in ChEMBL document CHEMBL5223073, “Andrographolide suppresses cisplatin-induced endothelial hyperpermeability through activation of PI3K/Akt and eNOS -derived nitric oxide” (Bioorg Med Chem, 2020).
# The source made the active and inactive calls. No cut-off for these calls is given here.
# Columns and labels:
# [1] = molecular target: T1, NF-kappa-B inhibitor alpha (Homo sapiens) (UniProt P25963); experiment: Inhibition of cisplatin-induced phosphorylation of IkappaBalpha at Ser32/36 residue in HUVEC cells at 100 uM incubated for 1 hr by Western blot analysis; type: cell-based
# T1 sequence (whole entry): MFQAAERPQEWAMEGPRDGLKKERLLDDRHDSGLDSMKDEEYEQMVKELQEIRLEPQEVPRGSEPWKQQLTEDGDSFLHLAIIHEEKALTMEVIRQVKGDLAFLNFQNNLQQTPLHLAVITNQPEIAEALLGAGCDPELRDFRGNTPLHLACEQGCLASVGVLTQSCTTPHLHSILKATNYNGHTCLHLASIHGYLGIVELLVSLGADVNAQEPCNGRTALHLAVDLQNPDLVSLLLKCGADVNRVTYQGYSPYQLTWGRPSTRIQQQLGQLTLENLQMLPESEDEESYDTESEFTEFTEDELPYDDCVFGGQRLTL
# [2] = molecular target: Transcription factor p65 (Homo sapiens) (UniProt Q04206); experiment: Inhibition of cisplatin-induced phosphorylation of p65 subunit at Ser536 residue in HUVEC cells at 100 uM incubated for 1 hr by Western blot analysis; type: cell-based
# Sequence of Transcription factor p65 (Homo sapiens) (Q04206 whole entry): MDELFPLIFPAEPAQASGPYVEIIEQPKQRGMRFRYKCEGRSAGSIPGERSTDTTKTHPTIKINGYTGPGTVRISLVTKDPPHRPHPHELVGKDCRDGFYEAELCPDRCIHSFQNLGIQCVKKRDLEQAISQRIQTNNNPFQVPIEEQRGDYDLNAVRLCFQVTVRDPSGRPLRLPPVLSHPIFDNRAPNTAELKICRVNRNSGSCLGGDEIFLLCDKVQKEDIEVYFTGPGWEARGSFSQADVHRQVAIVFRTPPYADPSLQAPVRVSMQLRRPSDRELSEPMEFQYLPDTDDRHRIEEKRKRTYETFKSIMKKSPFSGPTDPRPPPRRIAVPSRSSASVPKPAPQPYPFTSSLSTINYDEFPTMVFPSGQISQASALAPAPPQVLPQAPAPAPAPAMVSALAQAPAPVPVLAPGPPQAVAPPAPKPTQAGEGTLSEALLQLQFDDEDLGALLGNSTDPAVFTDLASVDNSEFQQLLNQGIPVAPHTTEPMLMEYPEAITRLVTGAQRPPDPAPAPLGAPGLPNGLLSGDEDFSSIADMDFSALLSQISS
# HUVEC [3] = experiment: Inhibition of cisplatin-induced TRPC1 phosphorylation in [32P] orthophosphate labeled HUVEC cells at 100 uM incubated for 15 mins in presence of cisplatin by Western blot analysis; type: cell-based; conditions: Homo sapiens
# HUVEC [4] = experiment: Inhibition of cisplatin-induced PKCalpha translocation in HUVEC cells at 100 uM incubated for 15 mins in presence of cisplatin by Western blot analysis; type: functional, cell-based; conditions: Homo sapiens
# HUVEC [5] = experiment: Improvement in cisplatin-induced endothelial monolayer integrity in HUVEC cells assessed as increase in transendothelial electric resistance at 100 uM preincubated with compound followed by cisplatin stimulation and measured after 45 mins; type: functional, cell-based; conditions: Homo sapiens
# HUVEC [6] = experiment: Inhibition of cisplatin-induced store operated Ca2+ release in HUVEC cells at 100 uM preincubated with compound followed by cisplatin stimulation by Fura-2 AM staining based calcium influx assay; type: functional, cell-based; conditions: Homo sapiens
# [7] = molecular target: Nuclear factor NF-kappa-B complex (Homo sapiens) (UniProt Q00653+P19838+Q04206); experiment: Inhibition of cisplatin-induced NF-kappaB activation in HUVEC cell nuclear extract assessed as reduction in NF-kappaB-DNA binding activity at 100 uM incubated for 1 hr by electrophoretic mobility shift assay; type: subcellular; conditions: Nucleus
# Sequence of Nuclear factor NF-kappa-B complex (Homo sapiens) (P19838 whole entry, looked up): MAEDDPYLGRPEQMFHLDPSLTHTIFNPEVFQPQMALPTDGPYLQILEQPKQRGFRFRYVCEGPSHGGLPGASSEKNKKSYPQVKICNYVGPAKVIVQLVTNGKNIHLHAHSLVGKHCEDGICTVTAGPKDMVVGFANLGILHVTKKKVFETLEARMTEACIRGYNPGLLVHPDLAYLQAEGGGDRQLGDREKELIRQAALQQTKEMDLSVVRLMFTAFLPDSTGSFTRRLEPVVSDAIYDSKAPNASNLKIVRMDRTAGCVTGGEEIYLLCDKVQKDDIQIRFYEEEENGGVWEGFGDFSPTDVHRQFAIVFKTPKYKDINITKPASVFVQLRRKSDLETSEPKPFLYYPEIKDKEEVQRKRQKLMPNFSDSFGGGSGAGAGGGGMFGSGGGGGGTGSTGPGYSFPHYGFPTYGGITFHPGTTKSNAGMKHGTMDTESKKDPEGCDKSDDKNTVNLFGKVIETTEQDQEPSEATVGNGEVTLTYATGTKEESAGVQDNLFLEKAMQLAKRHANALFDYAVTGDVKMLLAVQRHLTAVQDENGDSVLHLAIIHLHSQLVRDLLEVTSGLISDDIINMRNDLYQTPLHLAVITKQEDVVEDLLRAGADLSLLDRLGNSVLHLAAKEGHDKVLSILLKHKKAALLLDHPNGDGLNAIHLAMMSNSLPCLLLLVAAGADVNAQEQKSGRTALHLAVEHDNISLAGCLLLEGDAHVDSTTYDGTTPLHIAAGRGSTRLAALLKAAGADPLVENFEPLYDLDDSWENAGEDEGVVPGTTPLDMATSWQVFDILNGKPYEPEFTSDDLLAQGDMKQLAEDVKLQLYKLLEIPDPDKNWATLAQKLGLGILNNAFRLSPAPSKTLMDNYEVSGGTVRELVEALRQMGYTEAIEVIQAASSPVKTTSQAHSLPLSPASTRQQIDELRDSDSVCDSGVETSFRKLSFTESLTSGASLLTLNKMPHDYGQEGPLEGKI
# Sequence of Nuclear factor NF-kappa-B complex (Homo sapiens) (Q00653 whole entry, looked up): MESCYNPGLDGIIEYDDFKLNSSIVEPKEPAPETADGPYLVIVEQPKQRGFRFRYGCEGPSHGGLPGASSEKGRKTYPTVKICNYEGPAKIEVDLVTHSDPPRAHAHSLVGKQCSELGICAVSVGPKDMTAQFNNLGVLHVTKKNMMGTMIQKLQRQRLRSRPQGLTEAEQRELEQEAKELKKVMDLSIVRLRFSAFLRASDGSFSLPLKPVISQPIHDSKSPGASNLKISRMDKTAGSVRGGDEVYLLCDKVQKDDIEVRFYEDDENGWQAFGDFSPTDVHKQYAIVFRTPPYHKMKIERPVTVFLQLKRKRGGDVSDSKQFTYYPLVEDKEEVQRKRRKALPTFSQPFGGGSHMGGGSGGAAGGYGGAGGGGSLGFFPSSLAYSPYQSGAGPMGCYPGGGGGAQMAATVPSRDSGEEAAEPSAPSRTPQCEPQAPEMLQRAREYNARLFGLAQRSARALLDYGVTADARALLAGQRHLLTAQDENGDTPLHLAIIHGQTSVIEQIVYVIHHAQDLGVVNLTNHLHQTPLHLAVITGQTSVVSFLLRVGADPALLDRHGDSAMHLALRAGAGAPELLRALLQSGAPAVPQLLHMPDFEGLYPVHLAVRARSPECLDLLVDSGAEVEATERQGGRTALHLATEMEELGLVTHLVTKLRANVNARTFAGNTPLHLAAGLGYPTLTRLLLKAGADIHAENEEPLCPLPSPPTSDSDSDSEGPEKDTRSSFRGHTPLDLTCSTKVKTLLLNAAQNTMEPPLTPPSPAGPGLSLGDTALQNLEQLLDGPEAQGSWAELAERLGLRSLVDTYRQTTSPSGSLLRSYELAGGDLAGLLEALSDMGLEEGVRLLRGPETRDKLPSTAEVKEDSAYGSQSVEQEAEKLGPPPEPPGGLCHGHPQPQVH
# Sequence of Nuclear factor NF-kappa-B complex (Homo sapiens) (Q04206 whole entry, looked up): as the sequence (Q04206 whole entry) above
# HUVEC [8] = experiment: Inhibition of cisplatin-induced TRPC1 phosphorylation in [32P] orthophosphate labeled HUVEC cells at […] incubated for 15 mins in presence of cisplatin by Western blot analysis; type: cell-based; conditions: Homo sapiens
inhibition [1],inhibition [2],inhibition [7],Structure (SMILES),inhibition (HUVEC [3]),inhibition (HUVEC [4]),Activity (HUVEC [5]),inhibition (HUVEC [6]),inhibition (HUVEC [8])
Active,Active,Active,CC(=O)N[C@@H](C(=O)O)C(C)(C)SN=O,Active,Active,Active,Active,–
–,–,–,Cn1c2ccccc2c2c3c(c4c5ccccc5n(CCC#N)c4c21)CNC3=O,–,–,–,–,Active
